Results reported in article PMC4076210, “Discovery of Novel AKT Inhibitors with Enhanced Anti-Tumor Effects in Combination with the MEK Inhibitor” (PLoS ONE, 2014).
Where two headings read alike, the source gives them in different places.

Legend:
[1] = biological target: T1, Abl (Q252H) (h) (Homo sapiens, UniProt P00519, Q252H); experiment: Kinase panel; type: biochemical
T1 construct: purchased Millipore KinaseProfiler

[2] = biological target: T2, CaMKIIδ(h) (Homo sapiens, UniProt Q13557); experiment: Kinase panel; type: biochemical
T2 construct: purchased Millipore KinaseProfiler
T2 sequence (Q13557 whole entry): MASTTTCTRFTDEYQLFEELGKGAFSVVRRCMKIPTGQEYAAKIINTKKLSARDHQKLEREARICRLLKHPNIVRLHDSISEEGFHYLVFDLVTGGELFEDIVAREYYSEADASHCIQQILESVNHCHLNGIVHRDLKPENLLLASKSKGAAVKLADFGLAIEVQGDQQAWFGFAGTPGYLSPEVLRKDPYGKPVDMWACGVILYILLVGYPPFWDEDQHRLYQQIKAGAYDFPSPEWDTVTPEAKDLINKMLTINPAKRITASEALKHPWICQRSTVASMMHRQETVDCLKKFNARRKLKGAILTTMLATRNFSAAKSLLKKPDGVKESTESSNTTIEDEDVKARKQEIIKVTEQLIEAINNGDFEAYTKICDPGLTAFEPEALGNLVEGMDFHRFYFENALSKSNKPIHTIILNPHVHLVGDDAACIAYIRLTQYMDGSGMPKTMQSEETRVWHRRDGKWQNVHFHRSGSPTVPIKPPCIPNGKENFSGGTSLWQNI

[3] = biological target: T3, CaMKIV(h) (Homo sapiens, UniProt Q16566); experiment: Kinase panel; type: biochemical
T3 construct: purchased Millipore KinaseProfiler
T3 sequence (Q16566 1-473): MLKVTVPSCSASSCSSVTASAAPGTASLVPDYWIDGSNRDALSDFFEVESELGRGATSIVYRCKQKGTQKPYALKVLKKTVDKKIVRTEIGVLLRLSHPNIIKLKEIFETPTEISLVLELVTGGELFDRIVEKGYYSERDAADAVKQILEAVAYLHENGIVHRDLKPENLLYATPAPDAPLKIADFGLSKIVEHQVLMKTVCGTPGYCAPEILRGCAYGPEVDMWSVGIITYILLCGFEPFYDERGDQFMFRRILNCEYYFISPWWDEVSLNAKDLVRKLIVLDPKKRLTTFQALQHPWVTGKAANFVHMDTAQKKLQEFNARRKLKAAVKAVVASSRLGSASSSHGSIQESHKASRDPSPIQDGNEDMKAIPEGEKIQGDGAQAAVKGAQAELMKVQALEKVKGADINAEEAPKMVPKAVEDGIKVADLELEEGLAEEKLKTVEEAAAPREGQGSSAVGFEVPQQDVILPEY

[4] = biological target: T4, CHK2(h) (Homo sapiens, UniProt O96017); experiment: Kinase panel; type: biochemical
T4 construct: purchased Millipore KinaseProfiler
T4 sequence (O96017 whole entry): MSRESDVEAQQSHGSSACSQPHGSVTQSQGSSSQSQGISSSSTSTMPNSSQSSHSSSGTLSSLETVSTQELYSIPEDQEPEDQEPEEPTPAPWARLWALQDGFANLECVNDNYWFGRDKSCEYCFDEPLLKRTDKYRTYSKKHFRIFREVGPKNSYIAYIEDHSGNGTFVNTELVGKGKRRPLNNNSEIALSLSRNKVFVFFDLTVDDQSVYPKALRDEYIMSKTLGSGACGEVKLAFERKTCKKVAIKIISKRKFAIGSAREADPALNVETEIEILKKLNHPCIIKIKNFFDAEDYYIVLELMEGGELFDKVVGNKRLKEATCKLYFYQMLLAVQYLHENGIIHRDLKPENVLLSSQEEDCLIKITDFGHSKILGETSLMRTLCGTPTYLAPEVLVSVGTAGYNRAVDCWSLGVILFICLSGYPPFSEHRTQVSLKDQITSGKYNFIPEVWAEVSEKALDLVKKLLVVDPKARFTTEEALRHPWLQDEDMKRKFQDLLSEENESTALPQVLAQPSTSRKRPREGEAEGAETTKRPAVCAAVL

[5] = biological target: T5, CK1γ3(h) (Homo sapiens, UniProt Q9Y6M4); experiment: Kinase panel; type: biochemical
T5 construct: purchased Millipore KinaseProfiler
T5 sequence (Q9Y6M4 whole entry): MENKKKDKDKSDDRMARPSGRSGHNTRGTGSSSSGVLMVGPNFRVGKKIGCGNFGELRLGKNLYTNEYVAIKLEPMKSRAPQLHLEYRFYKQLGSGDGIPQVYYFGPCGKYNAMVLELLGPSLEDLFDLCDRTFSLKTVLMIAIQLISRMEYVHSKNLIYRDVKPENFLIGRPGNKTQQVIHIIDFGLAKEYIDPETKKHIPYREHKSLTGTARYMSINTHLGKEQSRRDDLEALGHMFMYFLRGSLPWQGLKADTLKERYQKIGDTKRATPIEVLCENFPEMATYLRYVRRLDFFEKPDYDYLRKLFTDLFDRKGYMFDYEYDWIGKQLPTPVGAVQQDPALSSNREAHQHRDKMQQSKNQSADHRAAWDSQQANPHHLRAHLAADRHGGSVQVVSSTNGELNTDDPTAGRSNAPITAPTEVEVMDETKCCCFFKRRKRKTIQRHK

[6] = biological target: T6, FAK(h) (Homo sapiens, UniProt Q05397); experiment: Kinase panel; type: biochemical
T6 construct: purchased Millipore KinaseProfiler
T6 sequence (Q05397 whole entry): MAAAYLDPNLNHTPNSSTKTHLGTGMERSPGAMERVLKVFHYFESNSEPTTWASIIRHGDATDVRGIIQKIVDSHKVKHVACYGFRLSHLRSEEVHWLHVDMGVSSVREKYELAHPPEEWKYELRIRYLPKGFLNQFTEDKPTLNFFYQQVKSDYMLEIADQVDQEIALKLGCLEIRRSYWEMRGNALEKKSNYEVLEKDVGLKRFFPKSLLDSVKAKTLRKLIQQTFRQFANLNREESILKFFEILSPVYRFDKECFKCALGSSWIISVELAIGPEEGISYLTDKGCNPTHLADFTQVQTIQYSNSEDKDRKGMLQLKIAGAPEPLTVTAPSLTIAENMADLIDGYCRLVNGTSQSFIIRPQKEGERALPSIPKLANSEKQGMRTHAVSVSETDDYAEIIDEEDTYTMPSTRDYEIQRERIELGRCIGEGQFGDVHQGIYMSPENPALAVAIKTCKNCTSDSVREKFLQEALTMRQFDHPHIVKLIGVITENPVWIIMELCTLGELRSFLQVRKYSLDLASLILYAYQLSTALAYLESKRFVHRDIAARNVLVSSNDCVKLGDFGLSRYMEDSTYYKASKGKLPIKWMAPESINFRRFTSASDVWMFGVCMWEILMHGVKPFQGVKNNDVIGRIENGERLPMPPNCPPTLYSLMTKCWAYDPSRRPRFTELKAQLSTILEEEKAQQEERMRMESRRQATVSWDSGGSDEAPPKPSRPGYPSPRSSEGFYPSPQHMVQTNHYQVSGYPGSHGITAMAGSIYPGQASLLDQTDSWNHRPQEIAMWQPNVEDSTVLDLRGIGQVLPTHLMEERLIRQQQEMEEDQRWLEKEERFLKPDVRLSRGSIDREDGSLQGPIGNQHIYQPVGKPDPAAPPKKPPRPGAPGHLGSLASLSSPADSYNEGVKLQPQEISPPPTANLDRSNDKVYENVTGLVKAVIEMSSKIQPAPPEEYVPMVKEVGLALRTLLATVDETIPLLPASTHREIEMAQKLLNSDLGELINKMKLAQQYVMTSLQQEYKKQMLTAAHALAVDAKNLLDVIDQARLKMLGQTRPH

[7] = biological target: T7, Hck(h) (Homo sapiens, UniProt P08631); experiment: Kinase panel; type: biochemical
T7 construct: purchased Millipore KinaseProfiler
T7 sequence (P08631 whole entry): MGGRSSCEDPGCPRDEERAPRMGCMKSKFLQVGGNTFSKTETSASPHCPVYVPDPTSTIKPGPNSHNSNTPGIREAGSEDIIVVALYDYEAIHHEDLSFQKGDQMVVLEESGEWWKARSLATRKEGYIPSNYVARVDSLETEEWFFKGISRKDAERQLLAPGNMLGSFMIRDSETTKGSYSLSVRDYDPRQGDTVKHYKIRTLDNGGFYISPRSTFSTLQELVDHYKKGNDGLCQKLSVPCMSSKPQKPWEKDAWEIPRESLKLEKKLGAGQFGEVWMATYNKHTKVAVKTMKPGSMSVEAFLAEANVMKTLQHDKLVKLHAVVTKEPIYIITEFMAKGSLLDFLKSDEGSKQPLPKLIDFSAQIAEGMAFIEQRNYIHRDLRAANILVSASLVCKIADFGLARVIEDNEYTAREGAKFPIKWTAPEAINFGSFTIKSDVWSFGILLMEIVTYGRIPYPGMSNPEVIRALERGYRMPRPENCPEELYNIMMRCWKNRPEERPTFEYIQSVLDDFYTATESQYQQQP

[8] = biological target: T8, HIPK2(h) (Homo sapiens, UniProt Q9H2X6); experiment: Kinase panel; type: biochemical
T8 construct: purchased Millipore KinaseProfiler
T8 sequence (Q9H2X6 whole entry): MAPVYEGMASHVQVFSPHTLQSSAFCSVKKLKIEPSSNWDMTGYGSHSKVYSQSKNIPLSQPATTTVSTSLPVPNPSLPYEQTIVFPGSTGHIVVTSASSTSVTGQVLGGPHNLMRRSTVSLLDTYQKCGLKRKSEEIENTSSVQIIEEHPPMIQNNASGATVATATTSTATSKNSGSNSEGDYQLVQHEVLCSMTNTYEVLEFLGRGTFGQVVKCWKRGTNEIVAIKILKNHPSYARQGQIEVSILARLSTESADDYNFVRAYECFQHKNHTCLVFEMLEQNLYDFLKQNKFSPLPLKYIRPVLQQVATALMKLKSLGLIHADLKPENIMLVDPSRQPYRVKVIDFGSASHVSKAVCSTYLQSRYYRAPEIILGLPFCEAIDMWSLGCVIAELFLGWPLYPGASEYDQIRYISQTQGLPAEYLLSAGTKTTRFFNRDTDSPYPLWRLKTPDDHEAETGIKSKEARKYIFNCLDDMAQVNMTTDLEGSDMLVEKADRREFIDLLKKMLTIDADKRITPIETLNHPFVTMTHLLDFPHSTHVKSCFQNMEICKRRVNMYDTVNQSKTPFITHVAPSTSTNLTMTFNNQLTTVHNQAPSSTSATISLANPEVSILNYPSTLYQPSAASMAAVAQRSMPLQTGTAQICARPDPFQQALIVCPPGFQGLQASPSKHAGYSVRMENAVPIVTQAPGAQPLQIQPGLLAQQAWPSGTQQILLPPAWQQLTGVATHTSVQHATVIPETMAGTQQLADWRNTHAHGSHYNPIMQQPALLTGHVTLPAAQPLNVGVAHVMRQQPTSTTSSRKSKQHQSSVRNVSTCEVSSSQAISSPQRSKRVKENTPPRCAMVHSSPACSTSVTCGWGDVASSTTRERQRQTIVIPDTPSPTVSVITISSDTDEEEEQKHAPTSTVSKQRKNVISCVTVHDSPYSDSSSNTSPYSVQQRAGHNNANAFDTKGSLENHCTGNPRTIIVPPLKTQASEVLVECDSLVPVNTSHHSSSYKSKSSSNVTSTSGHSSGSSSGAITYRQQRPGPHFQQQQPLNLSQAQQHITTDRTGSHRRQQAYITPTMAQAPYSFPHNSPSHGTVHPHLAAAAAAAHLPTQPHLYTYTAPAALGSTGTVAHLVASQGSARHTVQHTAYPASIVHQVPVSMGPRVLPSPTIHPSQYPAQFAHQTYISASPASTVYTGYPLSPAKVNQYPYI

[9] = biological target: T9, MSSK1(h) (Homo sapiens, UniProt Q9UPE1); experiment: Kinase panel; type: biochemical
T9 construct: purchased Millipore KinaseProfiler
T9 sequence (Q9UPE1 whole entry): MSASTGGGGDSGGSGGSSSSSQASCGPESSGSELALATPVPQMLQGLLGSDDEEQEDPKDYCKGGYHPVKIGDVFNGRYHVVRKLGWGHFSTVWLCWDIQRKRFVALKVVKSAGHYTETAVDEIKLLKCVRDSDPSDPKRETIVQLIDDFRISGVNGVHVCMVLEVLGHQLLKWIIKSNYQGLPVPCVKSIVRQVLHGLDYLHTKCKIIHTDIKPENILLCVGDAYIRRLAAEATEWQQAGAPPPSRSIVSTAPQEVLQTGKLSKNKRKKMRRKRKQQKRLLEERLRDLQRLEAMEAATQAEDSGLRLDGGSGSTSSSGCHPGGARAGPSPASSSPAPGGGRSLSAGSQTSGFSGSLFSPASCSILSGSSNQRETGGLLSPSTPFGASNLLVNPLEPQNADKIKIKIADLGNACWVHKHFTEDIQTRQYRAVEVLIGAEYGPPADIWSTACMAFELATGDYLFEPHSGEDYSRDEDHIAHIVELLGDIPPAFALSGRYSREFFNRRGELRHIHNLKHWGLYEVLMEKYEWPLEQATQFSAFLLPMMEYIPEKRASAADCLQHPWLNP

[10] = biological target: T10, PAK4(h) (Homo sapiens, UniProt O96013); experiment: Kinase panel; type: biochemical
T10 construct: purchased Millipore KinaseProfiler

[11] = biological target: T11, PKCγ(h) (Homo sapiens, UniProt P05129); experiment: Kinase panel; type: biochemical
T11 construct: purchased Millipore KinaseProfiler

[12] = biological target: T12, PRAK(h) (Homo sapiens, UniProt Q8IW41); experiment: Kinase panel; type: biochemical
T12 construct: purchased Millipore KinaseProfiler
T12 sequence (Q8IW41 1-473): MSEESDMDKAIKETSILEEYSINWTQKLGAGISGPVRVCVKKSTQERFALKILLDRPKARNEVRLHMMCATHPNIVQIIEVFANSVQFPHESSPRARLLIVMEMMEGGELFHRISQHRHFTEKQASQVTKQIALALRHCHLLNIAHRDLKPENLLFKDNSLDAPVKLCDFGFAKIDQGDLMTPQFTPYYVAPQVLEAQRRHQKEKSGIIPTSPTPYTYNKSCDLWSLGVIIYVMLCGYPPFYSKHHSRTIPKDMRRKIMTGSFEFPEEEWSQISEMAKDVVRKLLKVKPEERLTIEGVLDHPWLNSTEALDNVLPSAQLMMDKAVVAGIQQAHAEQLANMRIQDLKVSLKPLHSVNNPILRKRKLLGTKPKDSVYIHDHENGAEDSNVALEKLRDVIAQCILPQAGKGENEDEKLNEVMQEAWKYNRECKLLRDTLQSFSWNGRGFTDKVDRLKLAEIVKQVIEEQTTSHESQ

[13] = biological target: T13, Ret (V804L)(h) (Homo sapiens, UniProt P07949, V804L); experiment: Kinase panel; type: biochemical
T13 construct: purchased Millipore KinaseProfiler

[14] = biological target: T14, Txk(h) (Homo sapiens, UniProt P42681); experiment: Kinase panel; type: biochemical
T14 construct: purchased Millipore KinaseProfiler
T14 sequence (P42681 1-527): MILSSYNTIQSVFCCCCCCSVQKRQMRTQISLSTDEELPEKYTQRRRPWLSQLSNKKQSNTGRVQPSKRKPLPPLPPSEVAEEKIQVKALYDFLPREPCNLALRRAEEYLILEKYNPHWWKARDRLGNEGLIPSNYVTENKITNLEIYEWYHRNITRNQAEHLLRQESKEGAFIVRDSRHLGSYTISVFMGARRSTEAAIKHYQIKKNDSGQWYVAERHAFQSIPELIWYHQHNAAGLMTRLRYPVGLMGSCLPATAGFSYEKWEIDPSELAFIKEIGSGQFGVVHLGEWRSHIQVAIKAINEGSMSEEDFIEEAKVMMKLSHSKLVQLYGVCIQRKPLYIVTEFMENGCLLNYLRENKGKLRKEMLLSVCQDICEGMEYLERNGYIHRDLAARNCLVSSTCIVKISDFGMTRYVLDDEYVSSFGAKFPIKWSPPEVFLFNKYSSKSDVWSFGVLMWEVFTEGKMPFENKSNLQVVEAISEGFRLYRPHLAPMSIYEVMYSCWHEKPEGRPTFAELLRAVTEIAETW

[15] = biological target: PKCι (Homo sapiens, UniProt P41743); experiment: Kinase IC50 assay; type: biochemical
[16] = test system: phospho-PRAS40 in BT474 tumor xenografts; experiment: In vivo dose response pharmacodynamic assay (phospho-PRAS40 ELISA); design: species or system mouse; conditions: 2 h post last dose
Protocol: Protein lysates were analyzed by phospho-PRAS40 ELISA according to the methods described above. Concentration of the test compounds in the tissue and blood was analyzed using protein precipitation with acetonitrile, followed by HPLC/MS/MS analysis using positive ion atmospheric pressure chemical ionization or Turbo ionspray ionization (API 4000 or API 5000, Applied Biosystems). The lower level of detection of compound was 10 ng/mL and the assays were linear over a 100- to a 1000-fold drug concentration range.

## Cn1ncc(Cl)c1-c1cc(C(=O)N[C@H](CN)Cc2cccc(F)c2)sc1Cl [GSK2110183]
[1]
  inhibition at 0.5 µM: 6%
  inhibition at 10 µM: 11%
[2]
  inhibition at 0.5 µM: -20%
  inhibition at 10 µM: 12%
[3]
  inhibition at 0.5 µM: -15%
  inhibition at 10 µM: 0%
[4]
  inhibition at 0.5 µM: 39%
  inhibition at 10 µM: 97%
[5]
  inhibition at 0.5 µM: 7%
  inhibition at 10 µM: 28%
[6]
  inhibition at 0.5 µM: 1%
  inhibition at 10 µM: 39%
[7]
  inhibition at 0.5 µM: -21%
  inhibition at 10 µM: -8%
[8]
  inhibition at 0.5 µM: 25%
  inhibition at 10 µM: 87%
[9]
  inhibition at 0.5 µM: -1%
  inhibition at 10 µM: 12%
[10]
  inhibition at 0.5 µM: -13%
  inhibition at 10 µM: 17%
[11]
  inhibition at 0.5 µM: 39%
  inhibition at 10 µM: 90%
[12]
  inhibition at 0.5 µM: -35%
  inhibition at 10 µM: -57%
[13]
  inhibition at 0.5 µM: -5%
  inhibition at 10 µM: 16%
[14]
  inhibition at 0.5 µM: -9%
  inhibition at 10 µM: 15%
[15]
  IC50: > 1000 nM
[16]; 10 mg/kg QDx7 oral
  decrease of PRAS40 phosphorylation in tumors: 8%
[16]; 30 mg/kg QDx7 oral
  decrease of PRAS40 phosphorylation in tumors: 37%
[16]; 100 mg/kg QDx7 oral
  decrease of PRAS40 phosphorylation in tumors: 61%

## Cn1ncc(Cl)c1-c1cc(C(=O)N[C@H](CN)Cc2ccc(F)c(F)c2)oc1Cl [GSK2141795]
[1]; 0.5 µM, read-out: % Inhibition
  inhibition at 0.5 µM: -1%
[1]; 10 µM, read-out: % Inhibition
  inhibition at 10 µM: 3%
[2]; 0.5 µM, read-out: % Inhibition
  inhibition at 0.5 µM: 53%
[2]; 10 µM, read-out: % Inhibition
  inhibition at 10 µM: 94%
[3]; 0.5 µM, read-out: % Inhibition
  inhibition at 0.5 µM: -18%
[3]; 10 µM, read-out: % Inhibition
  inhibition at 10 µM: -21%
[4]; 0.5 µM, read-out: % Inhibition
  inhibition at 0.5 µM: 36%
[4]; 10 µM, read-out: % Inhibition
  inhibition at 10 µM: 91%
[5]; 0.5 µM, read-out: % Inhibition
  inhibition at 0.5 µM: -14%
[5]; 10 µM, read-out: % Inhibition
  inhibition at 10 µM: 51%
[6]; 0.5 µM, read-out: % Inhibition
  inhibition at 0.5 µM: -3%
[6]; 10 µM, read-out: % Inhibition
  inhibition at 10 µM: 5%
[7]; 0.5 µM, read-out: % Inhibition
  inhibition at 0.5 µM: -5%
[7]; 10 µM, read-out: % Inhibition
  inhibition at 10 µM: 27%
[8]; 0.5 µM, read-out: % Inhibition
  inhibition at 0.5 µM: 26%
[8]; 10 µM, read-out: % Inhibition
  inhibition at 10 µM: 83%
[9]; 0.5 µM, read-out: % Inhibition
  inhibition at 0.5 µM: -6%
[9]; 10 µM, read-out: % Inhibition
  inhibition at 10 µM: 10%
[10]; 0.5 µM, read-out: % Inhibition
  inhibition at 0.5 µM: 4%
[10]; 10 µM, read-out: % Inhibition
  inhibition at 10 µM: 39%
[11]; 0.5 µM, read-out: % Inhibition
  inhibition at 0.5 µM: 63%
[11]; 10 µM, read-out: % Inhibition
  inhibition at 10 µM: 95%
[12]; 0.5 µM, read-out: % Inhibition
  inhibition at 0.5 µM: 2%
[12]; 10 µM, read-out: % Inhibition
  inhibition at 10 µM: -17%
[13]; 0.5 µM, read-out: % Inhibition
  inhibition at 0.5 µM: 4%
[13]; 10 µM, read-out: % Inhibition
  inhibition at 10 µM: 21%
[14]; 0.5 µM, read-out: % Inhibition
  inhibition at 0.5 µM: 11%
[14]; 10 µM, read-out: % Inhibition
  inhibition at 10 µM: 30%
[15]
  IC50: > 1000 nM
[16]; 30 mg/kg QDx7 oral
  decrease of PRAS40 phosphorylation in tumors: 62%
